# Patent publication EP1333824B1, “TREATMENT OF SEXUAL DYSFUNCTION WITH BOMBESIN RECEPTOR ANTAGONISTS” (Warner-Lambert Company LLC, priority 2000, dated 2002)
# Key:
# [1] = system: Ovariectomised adult female Sprague Dawley rats; test: Female rat sexual proceptivity test (time investigating male vs female stimulus); format: in vivo
# Protocol: Ovariectomised adult female Sprague Dawley rats (180-200g, from Charles River) were housed in groups of 6 in a reversed lighting system of 12h light:dark (lights off 7.00-19.00h). Two weeks after ovariectomy they were used for sexual activity tests. The experiments started at least 5h into the dark period.
# Tests were carried out in a circular arena of 90cm diameter, surrounded by a 30cm high wall. Two small cages with wire-mesh front (15x15cm) are fixed into the wall such that the front of the cage is «flush» with the wall and the 2 cages are opposite each other. They contained two stimuli animals: an intact sexually experienced male and a receptive female (ovariectomised, primed with 5µg oestradiol benzoate dissolved in corn oil and injected subcutaneously 48 hours before the test and with 0.5 mg of progesterone four hours before the test). Sexually naive test and control animals were used. Forty eight hours before the tests, both the test and control animals were primed with 5µg oestradiol benzoate. For animals used as positive controls, progesterone (0.5mg/0.1ml) was dissolved in corn oil and administered subcutaneously (s.c.), 4h before the test. Test and control animals were introduced one at a time for 10 minute periods into the arena. During the 10min test, the time that the test or positive control animal spent investigating each stimulus animal was noted. The arena was thoroughly cleaned between animals. The position of the male/female stimuli boxes was randomised between animals, in order to avoid place preference. The difference in the percentage of time spent investigating the male minus the female stimuli was calculated, out of the total time spent investigating stimuli animals. […]
# Ovariectomised adult female Sprague Dawley rats (180-200g) were housed in groups of 5 in a reversed lighting system of 12h light:dark (lights off 5.00-17.00h). They were used for the experiments at least two weeks after ovariectomy. Forty eight hours before tests, the animals were primed with oestradiol benzoate (5µg/0.1ml in corn oil, s.c.). On day 1, progesterone (0.5mg/0.1ml, in corn oil, s.c.) was administered to one of the groups 4h before tests, as a positive control. […] The test lasted 10 minutes and was carried out as described before. The difference in the percentage of time spent investigating the male minus the female stimuli was calculated, out of the total time spent investigating stimuli animals. Animals were submitted to a test on day 1 and on day 15. […] On day 15 the test took place again, as described for day 1. […]
# human GRP receptor (BB2) = target: T1, human GRP receptor (BB2) (Homo sapiens, UniProt P30550); test: BB2 binding assay ([125I][Tyr4]bombesin, CHO-K1 cell membranes)
# T1 construct: expressed in transfected cells
# T1 sequence (P30550 whole entry): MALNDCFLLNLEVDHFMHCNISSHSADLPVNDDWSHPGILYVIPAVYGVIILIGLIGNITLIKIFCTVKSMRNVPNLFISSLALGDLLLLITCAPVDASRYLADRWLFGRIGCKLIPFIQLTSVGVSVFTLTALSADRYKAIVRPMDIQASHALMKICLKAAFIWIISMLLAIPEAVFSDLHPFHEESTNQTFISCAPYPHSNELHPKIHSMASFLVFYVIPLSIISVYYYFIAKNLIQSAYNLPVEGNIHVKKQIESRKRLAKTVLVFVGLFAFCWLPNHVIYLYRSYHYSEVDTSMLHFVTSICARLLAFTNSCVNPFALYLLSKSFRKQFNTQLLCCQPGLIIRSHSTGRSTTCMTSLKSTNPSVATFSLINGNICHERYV
# Protocol: In the following experiments, measurement of BB1 and BB2 binding was as follows. […] The final pellet was resuspended in assay buffer to a final cell concentration of 1.5 × 10^5/mL. […] Nonspecific binding was defined by 1µM bombesin. […] Radioactivity bound was determined using a gamma counter.
# All competition data was analysed using nonlinear regression utilizing iterative curve-plotting procedures in Prism® (GraphPad Software Inc., San Diego, USA).
# [2] = Table 7, N-terminal sulfonamide derivatives
Compound,IC50 (human GRP receptor (BB2); [2]) [µM],also measured
"neuromedin B [NMB, reference compound]",,"proceptivity in progesterone-treated rats ([1]; Example 5, NMB 100ng i.c.v. 10min before tests, P<0.001 vs progesterone): significantly reduced proceptivity"
"CC(=O)[C@H]1CC[C@H]2[C@@H]3CCC4=CC(=O)CC[C@]4(C)[C@H]3CC[C@]12C [progesterone, reference compound]",,"proceptivity, day 1 ([1]; Example 3, Compound (1) 15mg/kg i.p. 1h before test, progesterone 0.5mg/0.1ml s.c. 4h before, vs vehicle, P<0.01): stimulatory effect on proceptivity; percentage of time spent investigating the male stimulus ([1]; Example 5, progesterone 0.5mg/0.1ml s.c. 4h before test, compared to vehicle group): increased the percentage of time spent investigating the male stimulus"
"Cc1cc(C(=O)N[C@@](C)(Cc2c[nH]c3ccccc23)C(=O)NCC2(c3ccccn3)CCCCC2)no1 [Example 62, 5-Methyl-isoxazole-3-carboxylic acid {(S)-2-(1H-indol-3-yl)-1-methyl-1-[(1-pyridin-2-yl-cyclohexylmethyl)-carbamoyl]-ethyl}-amide]",,"IC50 (human GRP receptor (BB2); Table 3, N-acyl derivatives): > 10 µM"
"CN(C)c1ccccc1C(=O)N[C@@](C)(Cc1c[nH]c2ccccc12)C(=O)NCC1(c2ccccn2)CCCCC1 [Example 48, C-Dimethylamino-N-{(S)-2-(1H-indol-3-yl)-1-methyl-1-[(1-pyridin-2-yl-cyclohexyl-methyl)-carbamoyl]-ethyl}-benzamide]",,"IC50 (human GRP receptor (BB2); Table 3, N-acyl derivatives): > 10 µM"
"CN(C)c1cccc2c(S(=O)(=O)N[C@@](C)(Cc3c[nH]c4ccccc34)C(=O)NCC3(c4ccccn4)CCCCC3)cccc12 [Example 117, (S)-2-(5-Dimethylamino-naphthalene-1-sulfonylamino)-3-(1H-indol-3-yl)-2-methyl-N-(1-pyridin-2-yl-cyclohexylmethyl)-propionamide]",> 10,
"C[C@@](Cc1c[nH]c2ccccc12)(NS(=O)(=O)c1ccc(C(F)(F)F)cc1)C(=O)NCC1(c2ccccn2)CCCCC1 [Example 127, (S)-3-(1H-Indol-3-yl)-2-methyl-N-(1-pyridin-2-yl-cyclohexylmethyl)-2-(4-trifluoromethyl-benzenesulfonylamino)-propionamide]",> 10,
"C[C@@](Cc1c[nH]c2ccccc12)(NS(=O)(=O)c1ccc2ccccc2c1)C(=O)NCC1(c2ccccn2)CCCCC1 [Example 118, (S)-3-(1H-Indol-3-yl)-2-methyl-2-(naphthalene-2-sulfonylamino)-N-(1-pyridin-2-yl-cyclohexylmethyl)-propionamide]",> 10,
"C[C@@](Cc1c[nH]c2ccccc12)(NC(=O)c1ccco1)C(=O)NCC1(c2ccccn2)CCCCC1 [Example 60, Furan-2-carboxylic acid {(S)-2-(1H-indol-3-yl)-1-methyl-1-[(1-pyridin-2-yl-cyclohexylmethyl)-carbamoyl]-ethyl}-amide]",,"IC50 (human GRP receptor (BB2); Table 3, N-acyl derivatives): > 10 µM"
"C[C@@](Cc1c[nH]c2ccccc12)(NC(=O)c1cnc2ccccc2n1)C(=O)NCC1(c2ccccn2)CCCCC1 [Example 78, Quinoxaline-2-carboxylic acid {(S)-2-(1H-indol-3-yl)-1-methyl-1-[(1-pyridin-2-yl-cyclohexylmethyl)-carbamoyl]-ethyl}-amide]",,"IC50 (human GRP receptor (BB2); Table 3, N-acyl derivatives): > 10 µM"

# The next lines start with results.
IC50 (human GRP receptor (BB2); [2]) [µM],Compound,also measured
> 10,"C[C@@](Cc1c[nH]c2ccccc12)(NS(=O)(=O)c1cccc2nonc12)C(=O)NCC1(c2ccccn2)CCCCC1 [Example 139, (S)-2-(Benzo[1,2,5]oxadiazole-4-sulfonylamino)-3-(1H-indol-3-yl)-2-methyl-N-(1-pyridin-2-yl-cyclohexylmethyl)-propionamide]",
> 10,"C[C@@](Cc1c[nH]c2ccccc12)(NS(=O)(=O)c1ccc(Cl)s1)C(=O)NCC1(c2ccccn2)CCCCC1 [Example 128, (S)-2-(5-Chloro-thiophene-2-sulfonylamino)-3-(1H-indol-3-yl)-2-methyl-N-(1-pyridin-2-yl-cyclohexylmethyl)-propionamide]",
> 10,"C[C@@](Cc1c[nH]c2ccccc12)(NS(=O)(=O)Cc1ccccc1[N+](=O)[O-])C(=O)NCC1(c2ccccn2)CCCCC1 [Example 142, (S)-3-(1H-Indol-3-yl)-2-methyl-2-(2-nitro-phenylmethanesulfonylamino)-N-(1-pyridin-2-yl-cyclohexylmethyl)-propionamide]",
> 10,"C[C@@](Cc1c[nH]c2ccccc12)(NS(=O)(=O)c1cccc(C#N)c1)C(=O)NCC1(c2ccccn2)CCCCC1 [Example 143, (S)-2-(3-Cyano-benzenesulfonylamino)-3-(1H-indol-3-yl)-2-methyl-N-(1-pyridin-2-yl-cyclohexylmethyl)-propionamide]",
> 10,"C[C@@](Cc1c[nH]c2ccccc12)(NS(=O)(=O)c1ccc(C#N)cc1)C(=O)NCC1(c2ccccn2)CCCCC1 [Example 133, (S)-2-(4-Cyano-benzenesulfonylamino)-3-(1H-indol-3-yl)-2-methyl-N-(1-pyridin-2-yl-cyclohexylmethyl)-propionamide]",
> 10,"C[C@@](Cc1c[nH]c2ccccc12)(NS(=O)(=O)c1ccc(S(=O)(=O)c2ccccc2)s1)C(=O)NCC1(c2ccccn2)CCCCC1 [Example 150, (S)-2-(5-Benzenesulfonyl-thiophene-2-sulfonylamino)-3-(1H-indol-3-yl)-2-methyl-N-(1-pyridin-2-yl-cyclohexylmethyl)-propionamide]",
> 10,"Cn1cnc(S(=O)(=O)N[C@@](C)(Cc2c[nH]c3ccccc23)C(=O)NCC2(c3ccccn3)CCCCC2)c1 [Example 138, (S)-3-(1H-Indol-3-yl)-2-methyl-2-(1-methyl-1H-imidazole-4-sulfonylamino)-N-(1-pyridin-2-yl-cyclohexylmethyl)-propionamide]",
> 10,"C[C@@](Cc1c[nH]c2ccccc12)(NS(=O)(=O)c1ccc(-c2ccon2)s1)C(=O)NCC1(c2ccccn2)CCCCC1 [Example 141, (S)-3-(1H-Indol-3-yl)-2-(5-isoxazol-3-yl-thiophene-2-sulfonylamino)-2-methyl-N-(1-pyridin-2-yl-cyclohexylmethyl)-propionamide]",
> 10,"C[C@@](Cc1c[nH]c2ccccc12)(NS(=O)(=O)c1ccc(OC(F)(F)F)cc1)C(=O)NCC1(c2ccccn2)CCCCC1 [Example 151, (S)-3-(1H-Indol-3-yl)-2-methyl-N-(1-pyridin-2-yl-cyclohexylmethyl)-2-(4-trifluoromethoxy-benzenesulfonylamino)-propion amide]",
> 10,"C[C@@](Cc1c[nH]c2ccccc12)(NS(=O)(=O)c1ccc(Cl)cc1[N+](=O)[O-])C(=O)NCC1(c2ccccn2)CCCCC1 [Example 149, (S)-2-(4-Chloro-2-nitro-benzenesulfonylamino)-3-(1H-indol-3-yl)-2-methyl-N-(1-pyridin-2-yl-cyclohexylmethyl)-propionamide]",
> 10,"C[C@@](Cc1c[nH]c2ccccc12)(NS(=O)(=O)c1ccc(S(C)(=O)=O)cc1)C(=O)NCC1(c2ccccn2)CCCCC1 [Example 163, (S)-3-(1H-Indol-3-yl)-2-(4-methanesulfonyl-benzenesulfonylamino)-2-methyl-N-(1-pyridin-2-yl-cyclohexylmethyl)-propionamide]",
